Results as given in US9938258B2 (Karyopharm Therapeutics Inc., priority 2012, dated 2018).
Where a name gives a salt, the structure may show the parent alone. Read-outs that look alike come from different tables or passages of the source.

Experiments:
MS751 cells = assay: MTT cell proliferation assay, MS751; assay type: cell-based, human; conditions: Homo sapiens, MS751, MS751 cells, read-out: MTT Assay IC50, MS751
Method in brief: (§1)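 Cells plated at 5,000-10,000/well and attached overnight, then treated with eight compound concentrations from 1 nM to 30 μM. MTT added ~4 h, formazan solubilised and read at 490 nm. Percent inhibition versus negative control = (1-(ODo/OD))×100, mostly in duplicate, mean ± SE.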

Z138 cells = assay: MTT cell proliferation assay, Z138; assay type: cell-based; conditions: Homo sapiens, Z-138, Z138 cells, read-out: MTT Assay IC50, Z138
Method in brief: as §1

3T3 cells = assay: MTT cell proliferation assay, 3T3; assay type: cell-based, mouse; conditions: Mus musculus, NIH3T3, 3T3 cells, read-out: MTT Assay IC50, 3T3
Method in brief: as §1

[1] = eight concentrations 1 nM to 30 μM, incubation approximately 64-72 hours
[2] = approximately 64-72 hours incubation

C/C=C/C(=O)NCC1Cc2cc(-c3ccc(C(C)=O)s3)cc(Cl)c2O1 (stereo not drawn) [Compound 181, (E)-N-((5-(5-acetylthiophen-2-yl)-7-chloro-2,3-dihydrobenzofuran-2-yl)methyl)but-2-enamide]
IC50 (MS751 cells; [1]): > 30 µM
IC50 (Z138 cells; [1]): > 30 µM
IC50 (3T3 cells; [1]): > 30 µM

CC(=O)c1ccc(-c2cc(Cl)c3c(c2)CC(CNC(=O)/C=C/c2cccnc2C)O3)s1 (stereo not drawn) [Compound 182, (E)-N-((5-(5-acetylthiophen-2-yl)-7-chloro-2,3-dihydrobenzofuran-2-yl)methyl)-3-(2-methylpyridin-3-yl)acrylamide]
IC50 (MS751 cells; [1]): 5 to 30 µM
IC50 (Z138 cells; [1]): > 30 µM
IC50 (3T3 cells; [1]): > 30 µM

CC(=O)c1ccc(-c2cc(Cl)c3c(c2)CC(CNC(=O)/C=C/c2cc(C)[nH]c2C)O3)s1 (stereo not drawn) [Compound 185, (E)-N-((5-(5-acetylthiophen-2-yl)-7-chloro-2,3-dihydrobenzofuran-2-yl)methyl)-3-(2,5-dimethyl-1H-pyrrol-3-yl)acrylamide]
IC50 (MS751 cells; [1]): > 30 µM
IC50 (Z138 cells; [1]): > 30 µM
IC50 (3T3 cells; [1]): > 30 µM

CC(=O)c1ccc(-c2cc(Cl)c3c(c2)CC(CNC(=O)/C=C/c2cn(C)c4ccccc24)O3)s1 (stereo not drawn) [Compound 189, (E)-N-((5-(5-acetylthiophen-2-yl)-7-chloro-2,3-dihydrobenzofuran-2-yl)methyl)-3-(1-methyl-1H-indol-3-yl)acrylamide]
IC50 (MS751 cells; [1]): > 30 µM
IC50 (Z138 cells; [1]): > 30 µM
IC50 (3T3 cells; [1]): > 30 µM

CC(=O)c1ccc(-c2cc(Cl)c3c(c2)CC(CNC(=O)/C=C/c2nc4ccccc4s2)O3)s1 (stereo not drawn) [Compound 190, (E)-N-((5-(5-acetylthiophen-2-yl)-7-chloro-2,3-dihydrobenzofuran-2-yl)methyl)-3-(benzo[d]thiazol-2-yl)acrylamide]
IC50 (MS751 cells; [1]): > 30 µM
IC50 (Z138 cells; [1]): > 30 µM
IC50 (3T3 cells; [1]): > 30 µM

CCn1ccnc1/C=C/C(=O)NCC1Cc2cc(-c3ccc(C(C)=O)s3)cc(Cl)c2O1 (stereo not drawn) [Compound 191, (E)-N-((5-(5-acetylthiophen-2-yl)-7-chloro-2,3-dihydrobenzofuran-2-yl)methyl)-3-(1-ethyl-1H-imidazol-2-yl)acrylamide]
IC50 (MS751 cells; [2]): 5 to 30 µM
IC50 (Z138 cells; [2]): 5 to 30 µM
IC50 (3T3 cells; [2]): > 30 µM

CC(=O)c1ccc(-c2cc(Cl)c3c(c2)CC(CNC(=O)/C(C#N)=C/c2cccnc2)O3)s1 (stereo not drawn) [Compound 195, (E)-N-((5-(5-acetylthiophen-2-yl)-7-chloro-2,3-dihydrobenzofuran-2-yl)methyl)-2-cyano-3-(pyridin-3-yl)acrylamide]
IC50 (MS751 cells; [2]): 5 to 30 µM
IC50 (Z138 cells; [2]): 5 to 30 µM
IC50 (3T3 cells; [2]): > 30 µM

CC(=O)c1ccc(-c2cc(Cl)c3c(c2)CC(CNC(=O)/C=C/c2coc(C)n2)O3)s1 (stereo not drawn) [Compound 196, (E)-N-((5-(5-acetylthiophen-2-yl)-7-chloro-2,3-dihydrobenzofuran-2-yl)methyl)-3-(2-methyloxazol-4-yl)acrylamide]
IC50 (MS751 cells; [2]): > 30 µM
IC50 (Z138 cells; [2]): > 30 µM
IC50 (3T3 cells; [2]): > 30 µM

CC(=O)c1ccc(-c2cc(Cl)c3c(c2)CC(CNC(=O)/C=C/c2csc4ccccc24)O3)s1 (stereo not drawn) [Compound 200, (E)-N-((5-(5-acetylthiophen-2-yl)-7-chloro-2,3-dihydrobenzofuran-2-yl)methyl)-3-(benzo[b]thiophen-3-yl) acrylamide]
IC50 (MS751 cells; [2]): > 30 µM
IC50 (Z138 cells; [2]): > 30 µM
IC50 (3T3 cells; [2]): > 30 µM

CC(=O)c1ccc(-c2cc(Cl)c3c(c2)CC(CNC(=O)/C=C/c2nccn2-c2ccccc2)O3)s1 (stereo not drawn) [Compound 201, (E)-N-((5-(5-acetylthiophen-2-yl)-7-chloro-2,3-dihydrobenzofuran-2-yl)methyl)-3-(1-phenyl-1H-imidazol-2-yl)acrylamide]
IC50 (MS751 cells; [2]): 5 to 30 µM
IC50 (Z138 cells; [2]): 5 to 30 µM
IC50 (3T3 cells; [2]): 5 to 30 µM

CC(=O)c1ccc(-c2cc(Cl)c3c(c2)CC(CNC(=O)/C=C/c2cnc(C(C)(C)C)s2)O3)s1 (stereo not drawn) [Compound 205, (E)-N-((5-(5-acetylthiophen-2-yl)-7-chloro-2,3-dihydrobenzofuran-2-yl)methyl)-3-(2-tert-butylthiazol-5-yl)acrylamide]
IC50 (MS751 cells; [2]): 5 to 30 µM
IC50 (Z138 cells; [2]): 0.1 to 5 µM
IC50 (3T3 cells; [2]): > 30 µM

CC(=O)c1ccc(-c2cc(Cl)c3c(c2)CC(CNC(=O)/C=C/c2csc(-c4ccc(F)cc4)n2)O3)s1 (stereo not drawn) [Compound 206, (E)-N-((5-(5-acetylthiophen-2-yl)-7-chloro-2,3-dihydrobenzofuran-2-yl)methyl)-3-(2-(4-fluorophenyl)thiazol-4-yl)acrylamide]
IC50 (MS751 cells; [2]): > 30 µM
IC50 (Z138 cells; [2]): > 30 µM
IC50 (3T3 cells; [2]): > 30 µM

CC(=O)c1ccc(-c2cc(Cl)c3c(c2)CC(CNC(=O)/C=C/c2nccs2)O3)s1 (stereo not drawn) [Compound 207]
IC50 (MS751 cells; [2]): > 30 µM
IC50 (Z138 cells; [2]): > 30 µM
IC50 (3T3 cells; [2]): > 30 µM

CC(=O)c1ccc(-c2cc(Cl)c3c(c2)CC(CNC(=O)/C=C/c2c(C)nn(-c4ccc(F)cc4)c2C)O3)s1 (stereo not drawn) [Compound 208, (E)-N-((5-(5-acetylthiophen-2-yl)-7-chloro-2,3-dihydrobenzofuran-2-yl)methyl)-3-(1-(4-fluorophenyl)-3,5-dimethyl-1H-pyrazol-4-yl)acrylamide]
IC50 (MS751 cells; [2]): 5 to 30 µM
IC50 (Z138 cells; [2]): 5 to 30 µM
IC50 (3T3 cells; [2]): > 30 µM

CC(=O)c1ccc(-c2cc(Cl)c3c(c2)CC(CNC(=O)/C=C/c2cc(C)n(-c4ccc(Cl)cc4)c2C)O3)s1 (stereo not drawn) [Compound 209, (E)-N-((5-(5-acetylthiophen-2-yl)-7-chloro-2,3-dihydrobenzofuran-2-yl)methyl)-3-(1-(4-chlorophenyl)-2,5-dimethyl-1H-pyrrol-3-yl)acrylamide]
IC50 (MS751 cells; [2]): > 30 µM
IC50 (Z138 cells; [2]): > 30 µM
IC50 (3T3 cells; [2]): > 30 µM

CC(=O)c1ccc(-c2cc(Cl)c3c(c2)CC(CNC(=O)/C=C/c2cncc(S(=O)(=O)N(C)C)c2)O3)s1 (stereo not drawn) [Compound 210, (E)-N-((5-(5-acetylthiophen-2-yl)-7-chloro-2,3-dihydrobenzofuran-2-yl)methyl)-3-(5-(N,N-dimethylsulfamoyl)pyridin-3-yl)acrylamide]
IC50 (MS751 cells; [2]): 5 to 30 µM
IC50 (Z138 cells; [2]): > 30 µM
IC50 (3T3 cells; [2]): > 30 µM

CC(=O)c1ccc(-c2cc(Cl)c3c(c2)CC(CNC(=O)/C=C/c2c(C)nn(-c4ccccc4)c2Cl)O3)s1 (stereo not drawn) [Compound 211, (E)-N-((5-(5-acetylthiophen-2-yl)-7-chloro-2,3-dihydrobenzofuran-2-yl)methyl)-3-(5-chloro-3-methyl-1-phenyl-1H-pyrazol-4-yl)acrylamide]
IC50 (MS751 cells; [2]): > 30 µM
IC50 (Z138 cells; [2]): > 30 µM
IC50 (3T3 cells; [2]): > 30 µM

CC(=O)c1ccc(-c2cc(Cl)c3c(c2)CC(CNC(=O)/C=C/c2[nH]cnc2C)O3)s1 (stereo not drawn) [Compound 212, (E)-N-((5-(5-acetylthiophen-2-yl)-7-chloro-2,3-dihydrobenzofuran-2-yl)methyl)-3-(4-methyl-1H-imidazol-5-yl)acrylamide]
IC50 (MS751 cells; [2]): 5 to 30 µM
IC50 (Z138 cells; [2]): 5 to 30 µM
IC50 (3T3 cells; [2]): > 30 µM

CC(=O)c1ccc(-c2cc(Cl)c3c(c2)CC(CNC(=O)/C=C/c2ccn(C)c2)O3)s1 (stereo not drawn) [Compound 213, (E)-N-((5-(5-acetylthiophen-2-yl)-7-chloro-2,3-dihydrobenzofuran-2-yl)methyl)-3-(1-methyl-1H-pyrrol-3-yl)acrylamide]
IC50 (MS751 cells; [2]): > 30 µM
IC50 (Z138 cells; [2]): > 30 µM
IC50 (3T3 cells; [2]): > 30 µM

CC(=O)c1ccc(-c2ccc(Cl)c3c2CC(CNC(=O)/C=C/c2ccc(N)nc2)O3)s1 (stereo not drawn) [Compound 218, hydrochloride]
IC50 (MS751 cells; [2]): < 0.1 µM
IC50 (Z138 cells; [2]): < 0.1 µM
IC50 (3T3 cells; [2]): 5 to 30 µM
